Results reported in PubChem BioAssay (NCI).
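Where inhibition never reached the appropriate level, the endpoint shown equals the highest concentration tested. Otherwise, values were interpolated linearly from a five-concentration, 48-hour dose response in 96-well plates. Abbreviation: GI50, concentration required for 50% inhibition of growth. TGI is the concentration that stops growth completely.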

Experiments:
Assay in all cases: growth of human tumour cells (NCI), 48 h
RXF 393 renal = test system: RXF 393 renal
KM12 colon = test system: KM12 colon
CAKI-1 renal = test system: CAKI-1 renal
RPMI-8226 leukemia = test system: RPMI-8226 leukemia
COLO 205 colon = test system: COLO 205 colon
SW-620 colon = test system: SW-620 colon
HOP-92 NSCLC = test system: HOP-92 NSCLC
NCI-H522 lung = test system: NCI-H522 lung
NCI-H226 lung = test system: NCI-H226 lung
BT-549 breast = test system: BT-549 breast

CC(C)(c1ccccc1)c1ccc(Oc2ccc(C#N)c(C#N)c2)cc1
TGI (RXF 393 renal): > 100 µM | GI50 (KM12 colon): > 100 µM | TGI (KM12 colon): > 100 µM | GI50 (CAKI-1 renal): > 100 µM | TGI (CAKI-1 renal): > 100 µM | TGI (RPMI-8226 leukemia): > 100 µM | GI50 (COLO 205 colon): > 100 µM | TGI (COLO 205 colon): > 100 µM | TGI (SW-620 colon): > 100 µM | TGI (HOP-92 NSCLC): > 100 µM | GI50 (NCI-H522 lung): 16.9 µM | TGI (NCI-H522 lung): 84.8 µM

CC1=C(C(=O)N(C)c2ccc(Cl)c(C(=O)OC(C)C)c2)SCCO1
TGI (KM12 colon): > 100 µM | TGI (CAKI-1 renal): > 100 µM | TGI (RPMI-8226 leukemia): > 100 µM | TGI (NCI-H226 lung): > 100 µM | TGI (COLO 205 colon): > 100 µM | TGI (SW-620 colon): > 100 µM | TGI (BT-549 breast): > 100 µM | TGI (HOP-92 NSCLC): > 100 µM | TGI (NCI-H522 lung): > 100 µM

O=C(O)c1nc(-c2ccc(Cl)c(Cl)c2)nc2ccc(Cl)cc12
TGI (RXF 393 renal): 69.4 µM | TGI (KM12 colon): > 100 µM | TGI (CAKI-1 renal): > 100 µM | TGI (RPMI-8226 leukemia): > 100 µM | TGI (COLO 205 colon): > 100 µM | TGI (SW-620 colon): > 100 µM

CC(=O)O[C@H]1CCC2[C@@H]3CCC4c5nonc5CC[C@]4(C)C3CC[C@@]21C (some centres undefined)
TGI (RXF 393 renal): > 10 µM | GI50 (KM12 colon): > 100 µM | TGI (KM12 colon): > 100 µM | TGI (CAKI-1 renal): > 10 µM | TGI (NCI-H226 lung): > 10 µM | TGI (COLO 205 colon): > 10 µM | GI50 (SW-620 colon): > 100 µM | TGI (SW-620 colon): > 100 µM | GI50 (HOP-92 NSCLC): > 100 µM | TGI (HOP-92 NSCLC): > 100 µM | TGI (NCI-H522 lung): > 10 µM

CCOC(=O)/C(O)=C(/C(=O)OC)c1ccc(Cl)cc1
TGI (KM12 colon): > 100 µM | TGI (CAKI-1 renal): > 100 µM | TGI (RPMI-8226 leukemia): > 100 µM | TGI (COLO 205 colon): > 100 µM | TGI (SW-620 colon): > 100 µM

CN(C)C(=O)c1ccc([N+](=O)[O-])cc1
TGI (RXF 393 renal): > 100 µM | TGI (KM12 colon): > 100 µM | TGI (CAKI-1 renal): > 100 µM | TGI (NCI-H226 lung): > 100 µM | TGI (COLO 205 colon): > 100 µM | TGI (SW-620 colon): > 100 µM | TGI (HOP-92 NSCLC): > 100 µM | TGI (NCI-H522 lung): > 100 µM

Oc1c(Cl)c(Cl)c(O)c2c1CCCC2
TGI (RXF 393 renal): 22.5 µM | TGI (KM12 colon): 30.2 µM | TGI (RPMI-8226 leukemia): 6.91 µM | TGI (COLO 205 colon): 3.74 µM | TGI (SW-620 colon): 3.92 µM | TGI (BT-549 breast): 28.1 µM | TGI (HOP-92 NSCLC): 4.85 µM

CN(C)C(=O)c1cnc2oc3ccc(O)cc3c2c1-c1ccccc1
GI50 (RXF 393 renal): > 25 µM | TGI (RXF 393 renal): > 25 µM | GI50 (KM12 colon): > 25 µM | TGI (KM12 colon): > 25 µM | GI50 (CAKI-1 renal): > 25 µM | TGI (CAKI-1 renal): > 25 µM | GI50 (RPMI-8226 leukemia): > 25 µM | TGI (RPMI-8226 leukemia): > 25 µM | GI50 (SW-620 colon): > 25 µM | TGI (SW-620 colon): > 25 µM | GI50 (BT-549 breast): 6.2 µM | TGI (BT-549 breast): > 25 µM | GI50 (HOP-92 NSCLC): > 25 µM | TGI (HOP-92 NSCLC): > 25 µM | GI50 (NCI-H522 lung): > 25 µM | TGI (NCI-H522 lung): > 25 µM

COc1cc([N+](=O)[O-])c(OC)cc1-c1nc2sccn2c1/C=N/N=C(N)N
GI50 (RXF 393 renal): 50.1 µM | TGI (RXF 393 renal): > 100 µM | GI50 (KM12 colon): 4.36 µM | TGI (KM12 colon): > 100 µM | GI50 (CAKI-1 renal): 22.9 µM | TGI (CAKI-1 renal): 66.3 µM | GI50 (RPMI-8226 leukemia): > 100 µM | TGI (RPMI-8226 leukemia): > 100 µM | GI50 (COLO 205 colon): 66 µM | TGI (COLO 205 colon): > 100 µM | GI50 (SW-620 colon): 15 µM | TGI (SW-620 colon): > 100 µM | GI50 (BT-549 breast): 18.6 µM | TGI (BT-549 breast): 42.2 µM | GI50 (HOP-92 NSCLC): 19.3 µM | TGI (HOP-92 NSCLC): 45.4 µM | GI50 (NCI-H522 lung): 21 µM | TGI (NCI-H522 lung): > 100 µM

Cc1nn(C)c(COc2ccc(N3CCN(S(=O)(=O)N(C)C)CC3)cc2)c1-c1cccc2c(CCCOc3cccc4ccccc34)c(C(=O)O)n(CCN3CCOCC3)c12
GI50 (RXF 393 renal): 2.72 µM | TGI (RXF 393 renal): 6.98 µM | GI50 (KM12 colon): 3.5 µM | TGI (KM12 colon): 13 µM | GI50 (CAKI-1 renal): 11.4 µM | TGI (CAKI-1 renal): 23.9 µM | GI50 (NCI-H226 lung): 3.19 µM | TGI (NCI-H226 lung): 15.9 µM | GI50 (COLO 205 colon): 2.1 µM | TGI (COLO 205 colon): 4.81 µM | GI50 (SW-620 colon): 3.59 µM | TGI (SW-620 colon): 15 µM | GI50 (HOP-92 NSCLC): 2.01 µM | TGI (HOP-92 NSCLC): 6.56 µM | GI50 (NCI-H522 lung): 3.11 µM | TGI (NCI-H522 lung): 9.35 µM

CNC(=O)OCc1c2ccncc2c(C)c2c1[nH]c1ccc(OC)cc12
TGI (KM12 colon): > 100 µM | TGI (CAKI-1 renal): > 100 µM | TGI (RPMI-8226 leukemia): 0.668 µM | TGI (NCI-H226 lung): 0.784 µM | TGI (COLO 205 colon): 2.11 µM | TGI (SW-620 colon): > 100 µM | TGI (HOP-92 NSCLC): 0.618 µM | TGI (NCI-H522 lung): 1.13 µM

COC(=O)c1cc2ccccc2c2c3c(ccc12)OCO3
GI50 (RXF 393 renal): 14.8 µM | TGI (RXF 393 renal): 89.5 µM | GI50 (KM12 colon): 515 µM | TGI (KM12 colon): > 1000 µM | GI50 (CAKI-1 renal): 278 µM | TGI (CAKI-1 renal): > 1000 µM | GI50 (RPMI-8226 leukemia): 430 µM | TGI (RPMI-8226 leukemia): > 1000 µM | GI50 (NCI-H226 lung): 26.4 µM | TGI (NCI-H226 lung): 146 µM | TGI (COLO 205 colon): > 1000 µM | GI50 (SW-620 colon): 900 µM | TGI (SW-620 colon): > 1000 µM | GI50 (BT-549 breast): 47.1 µM | TGI (BT-549 breast): 482 µM | GI50 (HOP-92 NSCLC): 17.4 µM | TGI (HOP-92 NSCLC): 73 µM

N#Cc1nc2c(S(=O)(=O)c3ccc(Cl)cc3)c(N)n(CCCN3CCOCC3)c2nc1C#N
GI50 (RXF 393 renal): 1.05 µM | TGI (RXF 393 renal): 5.21 µM | GI50 (KM12 colon): 12.3 µM | TGI (KM12 colon): 34.7 µM | GI50 (CAKI-1 renal): 2.64 µM | TGI (CAKI-1 renal): 13.8 µM | GI50 (RPMI-8226 leukemia): 4.68 µM | TGI (RPMI-8226 leukemia): 41 µM | GI50 (NCI-H226 lung): 2.87 µM | TGI (NCI-H226 lung): 13.5 µM | GI50 (COLO 205 colon): 3.45 µM | TGI (COLO 205 colon): 13.6 µM | GI50 (SW-620 colon): 2.99 µM | TGI (SW-620 colon): 14.1 µM | GI50 (BT-549 breast): 5.75 µM | TGI (BT-549 breast): 42 µM | GI50 (HOP-92 NSCLC): 2.72 µM | TGI (HOP-92 NSCLC): 30.2 µM

C[CH2][Sn]([CH2]C)([O]C(=O)c1ccccc1F)[O][Sn]([CH2]C)([CH2]C)[O]C(=O)c1ccccc1F
GI50 (RXF 393 renal): 14.1 µM | TGI (RXF 393 renal): 27.9 µM | GI50 (KM12 colon): > 67.6 µM | TGI (KM12 colon): > 100 µM | GI50 (CAKI-1 renal): 14.2 µM | TGI (CAKI-1 renal): 27.7 µM | GI50 (RPMI-8226 leukemia): 20.9 µM | TGI (RPMI-8226 leukemia): > 100 µM | GI50 (NCI-H226 lung): 20.2 µM | TGI (NCI-H226 lung): 37.6 µM | GI50 (COLO 205 colon): 25.6 µM | TGI (COLO 205 colon): > 57.9 µM | GI50 (SW-620 colon): 20.3 µM | TGI (SW-620 colon): 36.5 µM | GI50 (HOP-92 NSCLC): 19 µM | TGI (HOP-92 NSCLC): 34.7 µM | GI50 (NCI-H522 lung): 1.24 µM | TGI (NCI-H522 lung): 2.61 µM

Cc1[nH]c2ccc(F)cc2c1-c1nc2c3cccnc3c3ncccc3c2[nH]1
GI50 (RXF 393 renal): 0.354 µM | TGI (RXF 393 renal): > 100 µM | GI50 (KM12 colon): 0.391 µM | TGI (KM12 colon): > 100 µM | GI50 (CAKI-1 renal): 0.358 µM | TGI (CAKI-1 renal): > 100 µM | GI50 (RPMI-8226 leukemia): 3.43 µM | TGI (RPMI-8226 leukemia): > 100 µM | GI50 (NCI-H226 lung): 0.351 µM | TGI (NCI-H226 lung): > 100 µM | GI50 (COLO 205 colon): 0.147 µM | GI50 (SW-620 colon): 0.374 µM | TGI (SW-620 colon): > 100 µM | GI50 (BT-549 breast): 0.295 µM | TGI (BT-549 breast): > 100 µM

c1ccc2[nH]c(-c3cc(-c4ccc5c(c4)OCO5)n[nH]3)nc2c1
GI50 (RXF 393 renal): 2.36 µM | TGI (RXF 393 renal): 12.1 µM | GI50 (KM12 colon): 1.75 µM | TGI (KM12 colon): 13.2 µM | GI50 (CAKI-1 renal): 2.74 µM | TGI (CAKI-1 renal): 17.7 µM | GI50 (RPMI-8226 leukemia): 1.14 µM | TGI (RPMI-8226 leukemia): 7.16 µM | GI50 (NCI-H226 lung): 4.2 µM | TGI (NCI-H226 lung): 21 µM | GI50 (COLO 205 colon): 4.78 µM | TGI (COLO 205 colon): 18.5 µM | GI50 (SW-620 colon): 5.87 µM | TGI (SW-620 colon): 21.4 µM | GI50 (BT-549 breast): 2.12 µM | TGI (BT-549 breast): 13 µM | GI50 (NCI-H522 lung): 1.98 µM | TGI (NCI-H522 lung): 10.3 µM

O=S(=O)(/C=C/CS(=O)(=O)c1ccccc1)c1ccccc1
TGI (RXF 393 renal): > 100 µM | TGI (KM12 colon): 32.3 µM | TGI (RPMI-8226 leukemia): 95.7 µM | TGI (NCI-H226 lung): 61.9 µM | TGI (COLO 205 colon): > 100 µM | TGI (SW-620 colon): 45.7 µM | TGI (HOP-92 NSCLC): > 100 µM
